In patent publication US6046219A, “Method for the treatment of conditions mediated by collagen formation together with cell proliferation by application of inhibitors of protein hydroxylation” (Cornell Research Foundation, Inc., priority 1997, dated 2000):
Entries after “also recorded” stand apart in the source; their conditions may differ.

Assays:
[1] = system: prolyl 4-hydroxylase in human lung fibroblast line MRC-5; assay: Assay of cellular human prolyl 4-hydroxylase / collagen secretion in MRC-5 lung fibroblasts; assay type: cell-based; conditions: human lung fibroblasts MRC-5, FIG. 5a-f
Procedure: FIGS. 5a-f show, as percent of uninhibited controls, the suppressive effect of six hydroxypyridone compounds on prolyl 4-hydroxylation in a human lung fibroblast line ("MRC-5"). Those cells were pretreated with inhibitor for 30 minutes prior to routine metabolic labeling with tritiated proline ("Pro") for 24 hours, followed by standard hydrolysis and separation of amino acids from both supernatant and cells for determination of proline conversion into hydroxyproline ("Hyp").
The established human lung fibroblast line MRC-5 was used, maintained, and propagated by routine cell culture techniques.
SMC or MRC-5 cells (3-5×10^6 cells/35 mm well) were labeled in the presence or absence of hydroxypyridones, with ^3 H-proline (Pro) (4 μCi/ml) for 24 hours in proline- and serum-free Dulbecco […] ("DMEM") containing 50 μg/ml sodium ascorbate and 20 μg/ml β-aminopropionitrile. […] The hydrolysate was derivatized with phenylisothiocyanate and analyzed for ^3 H-proline ("Pro") and ^3 H-hydroxyproline ("Hyp") by HPLC on a reverse-phase C18 column, using an automated HPLC system (Hewlett-Packard, Wilmington, Del.) with an in-line scintillation counter (Inus Systems, Inc., Tampa, Fla.). The position of proline and hydroxyproline was determined from tritiated standards.

[2] = system: cellular deoxyhypusyl hydroxylase; conditions: Hanauske-Abel et al. 1994; cited from earlier work
[3] = system: human SMC from fibroproliferative vascular lesions; assay: Cell proliferation: DNA synthesis (3H-thymidine) in SMC; assay type: cell-based; conditions: for reversibility of cytostatic effect upon withdrawal: corrected for cell number
Procedure: The effect of the structural hydroxypyridone analog kojic acid is shown for comparison. Serum-stimulated DNA synthesis in SMC was determined by a 4-hour pulse of ^3 H-thymidine given 20 hours after treatment with L-mimosine and kojic acid (filled symbols). Identically treated, but unlabeled cells cultured in parallel, at that time point were washed and returned to fresh culture media without inhibitor for an additional 20 hours prior to otherwise identical labeling with ^3 H-thymidine (open symbols). Data is expressed as ^3 H-thymidine incorporated per cell to compensate for the reduced cell number in the wake of inhibitor treatment.
Inhibition of DNA synthesis was examined by semiautomated methods. SMC were plated at 1×10^4 cells/well in 96-well microtiter plates at least 24 hours prior to the assay. Agents were introduced into normal serum-containing growth media for 20 hours before the cells were pulsed with ^3 H-thymidine (1 μCi/ml) for 4 hours. Cells were collected with a cell harvester and the DNA-incorporated label determined by scintillation counting (Betaplate; Wallac, Inc., Gaithersburg, Md.) (n=6 per point).

type I procollagen = assay: Type I procollagen secretion by SMC; assay type: cell-based; conditions: human SMC, FIG. 6b
Procedure: (§1) Type III collagen biosynthesis (FIG. 6a) was assessed by a commercial radioimmunoassay using a monoclonal antibody to the N-terminal propeptide of type III procollagen. Plasminogen activator inhibitor-1 ("PAI-1") activity was measured by a standard enzymatic method. Type I collagen biosynthesis (FIG. 6b) was assessed by routine Western blot using a monoclonal antibody to the C-terminal propeptide of type I procollagen.
(§2) SMC or MRC-5 cells (3-5×10^6 cells/35 mm well), incubated in serum-free DMEM containing 50 μg/ml sodium ascorbate and 20 μg/ml β-aminopropionitrile, are exposed for 24 hours to increasing concentrations of hydroxypyridones. After centrifugation, to clear any cellular debris, these supernatants are used to determine the levels of type I and III procollagens, using commercially available radioimmunoassays (Incstar and Behringwerke, respectively).
(§3) Human SMC (3-5×10^5 cells/35 mm well), grown to confluency and incubated in serum-free DMEM containing 50 μg/ml sodium ascorbate and 20 μg/ml β-aminopropionitrile, were exposed for 24 hours to increasing concentrations of test compounds. […] Type I procollagen biosynthesis also was quantified by Western analysis in the following manner. […] Immunoblots were scanned with a UMAX UC630 flatbed scanner and quantified densitometrically using standard software.

type III procollagen = assay: Type III procollagen secretion by SMC; assay type: cell-based; conditions: human SMC, FIG. 6a
Procedure: as §1, §2, §3

For `N[C@@H](Cn1ccc(=O)c(O)c1)C(=O)O` [L-Mimosine], the “secretion of hydroxyproline-containing proteins (collagen secretion)” value [1] is listed as “selectively inhibited”, the “inhibition of cellular deoxyhypusyl hydroxylase activity” value [2] is listed as “block the cellular deoxyhypusyl hydroxylase activity” and the “non-specific or toxic effects” value ([3]; FIGS. 6, 7) is listed as “did not result from non-specific or toxic effects”. For the same compound, the “reversibility of cytostatic effect upon withdrawal” value ([3]; FIG. 7, listed as L-mimosine) was “non-toxic reversibility”, the “reversibility of cytostatic effect upon withdrawal” value ([3]; FIG. 7, listed as mimosine) was “fully reversible” and the “rebound effect on DNA synthesis” value ([3]; following inhibitor removal and additional 24-hour recovery) was “marked rebound effect”. For the same compound, the “inhibition of DNA synthesis” value ([3]; lesion-derived SMC, initial 24-hour treatment, FIG. 7) was “DNA synthesis was inhibited”, the “reversibility of suppressive effects (collagen secretion, onset of DNA synthesis)” value ([3]; upon removal of compound) was “reversible” and the “inhibition of secretion of procollagen type I” value (type I procollagen) was “potent inhibitor; also recorded: selectively suppressive effect”. For the same compound, the “inhibition of secretion of procollagen type III” value (type III procollagen) was “potent inhibitor; also recorded: selectively suppressive effect”.
